Laboratory results as given in article PMC5218480 (PLoS ONE, 2017).

Test system: MV-4-11 cells
Experiment: Gene expression microarray analysis (Affymetrix PrimeView) and GSEA
Format: cell-based, human
Set-up: RFU PODN (11730768_x_at) / Fold change /veh PODN (11730768_x_at) / RFU LINC00158 (11744669_a_at) / Fold change /veh LINC00158 (11744669_a_at) / RFU DUSP10 (11751237_a_at) / Fold change /veh DUSP10 (11751237_a_at) / RFU ID3 (11757404_x_at) / Fold change /veh ID3 (11757404_x_at) / RFU PLEKHG5 (11737974_s_at) / Fold change /veh PLEKHG5 (11737974_s_at) / RFU LRRC4B (11730491_at) / Fold change /veh LRRC4B (11730491_at) / RFU GIMAP4 (11747438_a_at) / Fold change /veh GIMAP4 (11747438_a_at) / RFU KRT8 (11758183_x_at) / Fold change /veh KRT8 (11758183_x_at) / RFU CNN1 (11734310_a_at) / Fold change /veh CNN1 (11734310_a_at) / RFU VPS37D (11726825_at) / Fold change /veh VPS37D (11726825_at) / RFU C10orf10 (11716522_x_at) / Fold change /veh C10orf10 (11716522_x_at) / RFU KIR2DL2 /// KIR2DL4 /// KIR2DL5A /// KIR2DL5B /// KIR2DS1 /// KIR2DS2 /// KIR2DS3 /// KIR2DS4 /// KIR3DL3 /// KIR3DL3 /// KIR3DS1 (11738374_at) / Fold change /veh KIR2DL2 /// KIR2DL4 /// KIR2DL5A /// KIR2DL5B /// KIR2DS1 /// KIR2DS2 /// KIR2DS3 /// KIR2DS4 /// KIR3DL3 /// KIR3DL3 /// KIR3DS1 (11738374_at) / RFU C1QL1 (11718748_at) / Fold change /veh C1QL1 (11718748_at) / RFU TMPRSS4 (11747572_a_at) / Fold change /veh TMPRSS4 (11747572_a_at) / RFU HAMP (11756126_x_at) / Fold change /veh HAMP (11756126_x_at) / RFU RNFT2 (11725882_a_at) / Fold change /veh RNFT2 (11725882_a_at) / RFU NR4A2 (11747474_a_at) / Fold change /veh NR4A2 (11747474_a_at) / RFU ABCC12 (11746883_a_at) / Fold change /veh ABCC12 (11746883_a_at) / RFU TMEM136 (11760407_x_at) / Fold change /veh TMEM136 (11760407_x_at) / RFU CLDN22 /// WWC2 (11732394_at) / Fold change /veh CLDN22 /// WWC2 (11732394_at) / RFU HLA-DPB1 (11760878_x_at) / Fold change /veh HLA-DPB1 (11760878_x_at) / RFU SPINT1 (11716480_a_at) / Fold change /veh SPINT1 (11716480_a_at) / RFU GAP43 (11754022_s_at) / Fold change /veh GAP43 (11754022_s_at) / RFU A4GNT (11735810_at) / Fold change /veh A4GNT (11735810_at) / RFU PRB3 (11715151_x_at) / Fold change /veh PRB3 (11715151_x_at) / RFU TUBB4B (11761932_at) / Fold change /veh TUBB4B (11761932_at) / RFU CAPN14 (11732068_a_at) / Fold change /veh CAPN14 (11732068_a_at) / RFU TMCC2 (11721928_a_at) / Fold change /veh TMCC2 (11721928_a_at) / RFU IRGQ (11745062_a_at) / Fold change /veh IRGQ (11745062_a_at) / RFU FAM174B (11720279_a_at) / Fold change /veh FAM174B (11720279_a_at) / RFU TMPRSS4 (11748680_a_at) / Fold change /veh TMPRSS4 (11748680_a_at) / RFU FAM212B (11763350_a_at) / Fold change /veh FAM212B (11763350_a_at) / RFU PLEKHG5 (11743358_a_at) / Fold change /veh PLEKHG5 (11743358_a_at) / RFU ZSCAN30 (11745921_a_at) / Fold change /veh ZSCAN30 (11745921_a_at) / RFU CMKLR1 (11741424_a_at) / Fold change /veh CMKLR1 (11741424_a_at) / RFU LOC101060620 /// MAPK8IP1 (11723275_at) / Fold change /veh LOC101060620 /// MAPK8IP1 (11723275_at) / RFU SPTSSB (11747773_x_at) / Fold change /veh SPTSSB (11747773_x_at) / RFU PRSS12 (11739890_at) / Fold change /veh PRSS12 (11739890_at) / RFU BIN1 (11741810_x_at) / Fold change /veh BIN1 (11741810_x_at) / RFU WNT11 (11732464_a_at) / Fold change /veh WNT11 (11732464_a_at) / RFU C10orf10 (11716521_a_at) / Fold change /veh C10orf10 (11716521_a_at) / RFU C5orf56 (11738089_at) / Fold change /veh C5orf56 (11738089_at) / RFU CYB561 (11721691_x_at) / Fold change /veh CYB561 (11721691_x_at) / RFU ANKRD19P (11752326_a_at) / Fold change /veh ANKRD19P (11752326_a_at) / RFU OR2T12 /// OR2T33 /// OR2T8 (11738714_s_at) / Fold change /veh OR2T12 /// OR2T33 /// OR2T8 (11738714_s_at) / RFU VCAN (11748164_a_at) / Fold change /veh VCAN (11748164_a_at) / RFU JSRP1 (11732532_at) / Fold change /veh JSRP1 (11732532_at) / RFU KRTAP10-11 (11738290_x_at) / Fold change /veh KRTAP10-11 (11738290_x_at) / RFU MYO3A (11730013_a_at) / Fold change /veh MYO3A (11730013_a_at) / RFU EBF3 (11725865_a_at) / Fold change /veh EBF3 (11725865_a_at) / RFU CAMK2N1 (11719241_x_at) / Fold change /veh CAMK2N1 (11719241_x_at) / RFU C5orf56 (11738088_a_at) / Fold change /veh C5orf56 (11738088_a_at) / RFU OLFML3 (11715873_a_at) / Fold change /veh OLFML3 (11715873_a_at) / RFU LOC100653217 /// NTM (11731650_a_at) / Fold change /veh LOC100653217 /// NTM (11731650_a_at) / RFU MAPK11 (11762145_a_at) / Fold change /veh MAPK11 (11762145_a_at) / RFU FIZ1 (11724087_x_at) / Fold change /veh FIZ1 (11724087_x_at) / RFU OASL (11726364_x_at) / Fold change /veh OASL (11726364_x_at) / RFU SOX15 (11748057_x_at) / Fold change /veh SOX15 (11748057_x_at) / RFU CD79A (11719716_a_at) / Fold change /veh CD79A (11719716_a_at) / RFU HIST1H1D (11736915_at) / Fold change /veh HIST1H1D (11736915_at) / RFU CASKIN2 (11723855_a_at) / Fold change /veh CASKIN2 (11723855_a_at) / RFU LOC730098 (11760151_x_at) / Fold change /veh LOC730098 (11760151_x_at) / RFU OR4N2 (11742367_at) / Fold change /veh OR4N2 (11742367_at) / RFU PRRT2 (11749266_a_at) / Fold change /veh PRRT2 (11749266_a_at) / RFU SNX32 (11753110_a_at) / Fold change /veh SNX32 (11753110_a_at) / RFU CDHR5 (11726645_a_at) / Fold change /veh CDHR5 (11726645_a_at) / RFU RCAN1 (11760418_a_at) / Fold change /veh RCAN1 (11760418_a_at) / RFU FAM167A (11723789_a_at) / Fold change /veh FAM167A (11723789_a_at) / RFU FAM26E (11764081_at) / Fold change /veh FAM26E (11764081_at) / RFU ISYNA1 (11749810_s_at) / Fold change /veh ISYNA1 (11749810_s_at) / RFU ACY1 (11761880_at) / Fold change /veh ACY1 (11761880_at) / RFU 11764098_at / Fold change /veh 11764098_at / RFU SAMD14 (11745864_x_at) / Fold change /veh SAMD14 (11745864_x_at) / RFU NPB (11741838_a_at) / Fold change /veh NPB (11741838_a_at) / RFU TMPRSS6 (11731388_a_at) / Fold change /veh TMPRSS6 (11731388_a_at) / RFU KRTAP10-2 (11738614_at) / Fold change /veh KRTAP10-2 (11738614_at) / RFU ARHGAP8 /// PRR5-ARHGAP8 (11727945_x_at) / Fold change /veh ARHGAP8 /// PRR5-ARHGAP8 (11727945_x_at) / RFU KRTAP5-7 /// NADSYN1 (11734609_at) / Fold change /veh KRTAP5-7 /// NADSYN1 (11734609_at) / RFU RASL12 (11751679_a_at) / Fold change /veh RASL12 (11751679_a_at) / RFU CDKN2B (11736163_a_at) / Fold change /veh CDKN2B (11736163_a_at) / RFU PRF1 (11729649_at) / Fold change /veh PRF1 (11729649_at) / RFU, ZNF638 /// ZNF638-IT1 / Fold change vs veh, ZNF638 /// ZNF638-IT1 / RFU, PANK3 / Fold change vs veh, PANK3 / RFU, SH3YL1 / Fold change vs veh, SH3YL1 / RFU, ZEB2 / Fold change vs veh, ZEB2 / RFU, NRIP1 / Fold change vs veh, NRIP1 / RFU, PTTG1IP / Fold change vs veh, PTTG1IP / RFU, CAPN2 / Fold change vs veh, CAPN2 / RFU, MED14 / Fold change vs veh, MED14 / RFU, SNORA58 / Fold change vs veh, SNORA58 / RFU, C1orf63 / Fold change vs veh, C1orf63 / RFU, LRRFIP1 / Fold change vs veh, LRRFIP1 / RFU, NDUFAF7 / Fold change vs veh, NDUFAF7 / RFU, SLC12A2 / Fold change vs veh, SLC12A2 / RFU, IBTK / Fold change vs veh, IBTK / RFU, ESF1 / Fold change vs veh, ESF1 / Fold change vs veh, TMEM50B / RFU, TAOK1 / Fold change vs veh, TAOK1 / RFU, ACBD3 / Fold change vs veh, ACBD3 / RFU, TMA16 / Fold change vs veh, TMA16 / RFU, RWDD3 / Fold change vs veh, RWDD3 / RFU, BCAT1 / Fold change vs veh, BCAT1 / RFU, EDEM3 / Fold change vs veh, EDEM3 / RFU, TMEM33 / Fold change vs veh, TMEM33 / RFU, WDR75 / Fold change vs veh, WDR75 / RFU, AHCTF1 / Fold change vs veh, AHCTF1 / RFU, TFRC / Fold change vs veh, TFRC / RFU, ZDHHC17 / Fold change vs veh, ZDHHC17 / RFU, NOM1 / Fold change vs veh, NOM1 / RFU, ARL8B / Fold change vs veh, ARL8B / RFU, ZBTB11 / Fold change vs veh, ZBTB11 / RFU, TAMM41 / Fold change vs veh, TAMM41 / RFU, KIAA1704 /// LOC100996395 / Fold change vs veh, KIAA1704 /// LOC100996395 / RFU, ING1 / Fold change vs veh, ING1 / RFU, TRMT61B / Fold change vs veh, TRMT61B / RFU, FUBP3 / Fold change vs veh, FUBP3 / RFU, TP53 / Fold change vs veh, TP53 / RFU, TNKS2 / Fold change vs veh, TNKS2 / RFU, ZFP14 / Fold change vs veh, ZFP14 / RFU, ACTR2 / Fold change vs veh, ACTR2 / RFU, PPP3R1 / Fold change vs veh, PPP3R1 / RFU, PIK3R1 / Fold change vs veh, PIK3R1 / RFU, HNRNPA1 / Fold change vs veh, HNRNPA1 / RFU, RNF170 / Fold change vs veh, RNF170 / RFU, ZNF28 / Fold change vs veh, ZNF28 / RFU, RNGTT / Fold change vs veh, RNGTT / RFU, OGT / Fold change vs veh, OGT / RFU, BRD1 / Fold change vs veh, BRD1 / RFU, MARS / Fold change vs veh, MARS / RFU, ZNF655 / Fold change vs veh, ZNF655 / RFU, FAHD1 / Fold change vs veh, FAHD1 / RFU, BDP1 / Fold change vs veh, BDP1 / RFU, LRRCC1 / Fold change vs veh, LRRCC1 / RFU, ARID1A / Fold change vs veh, ARID1A / RFU, ZNF146 / Fold change vs veh, ZNF146 / RFU, ZNF330 / Fold change vs veh, ZNF330 / RFU, GPN3 / Fold change vs veh, GPN3 / RFU, C9orf123 / Fold change vs veh, C9orf123 / RFU, N4BP2L2 / Fold change vs veh, N4BP2L2 / RFU, ARFIP1 / Fold change vs veh, ARFIP1 / RFU, FAM179B / Fold change vs veh, FAM179B / RFU, BCL10 / Fold change vs veh, BCL10 / RFU, UHRF1BP1L / Fold change vs veh, UHRF1BP1L / RFU, BET1 / Fold change vs veh, BET1 / RFU, CNOT2 / Fold change vs veh, CNOT2 / RFU, ZNF268 / Fold change vs veh, ZNF268 / Fold change vs veh, ZNF507 / RFU, DGCR2 / Fold change vs veh, DGCR2 / RFU, WDSUB1 / Fold change vs veh, WDSUB1 / Fold change vs veh, HSP90B1 /// MIR3652 / RFU, ADSS / Fold change vs veh, ADSS / RFU, GK / Fold change vs veh, GK / RFU, ZNF148 / Fold change vs veh, ZNF148 / RFU, TAF9 / Fold change vs veh, TAF9 / RFU, SLC1A5 / Fold change vs veh, SLC1A5 / RFU, SLMO2 / Fold change vs veh, SLMO2 / RFU, ABCC4 / Fold change vs veh, ABCC4 / RFU, LOC101060439 /// RAP1B / Fold change vs veh, LOC101060439 /// RAP1B / RFU, RFX7 / Fold change vs veh, RFX7 / RFU, GTPBP10 / Fold change vs veh, GTPBP10 / RFU, CNEP1R1 / Fold change vs veh, CNEP1R1 / RFU, BIVM-ERCC5 /// ERCC5 / Fold change vs veh, BIVM-ERCC5 /// ERCC5 / RFU, ILF3 / Fold change vs veh, ILF3 / RFU 11762660_at / Fold change /veh 11762660_at / RFU VCAN (11757783_s_at) / Fold change /veh VCAN (11757783_s_at) / RFU DDX43 (11728927_at) / Fold change /veh DDX43 (11728927_at) / RFU KRT8 (11758188_x_at) / Fold change /veh KRT8 (11758188_x_at) / RFU NKD1 (11759106_at) / Fold change /veh NKD1 (11759106_at) / RFU SRD5A1 (11742802_a_at) / Fold change /veh SRD5A1 (11742802_a_at) / RFU TPSAB1 /// TPSB2 (11721975_s_at) / Fold change /veh TPSAB1 /// TPSB2 (11721975_s_at) / RFU GSTM3 (11746129_a_at) / Fold change /veh GSTM3 (11746129_a_at) / RFU IL23R (11737362_x_at) / Fold change /veh IL23R (11737362_x_at) / RFU TMEM51 (11727254_a_at) / Fold change /veh TMEM51 (11727254_a_at) / RFU PIWIL2 (11732686_x_at) / Fold change /veh PIWIL2 (11732686_x_at) / RFU ORM1 (11744905_x_at) / Fold change /veh ORM1 (11744905_x_at) / RFU CCDC152 (11743942_at) / Fold change /veh CCDC152 (11743942_at) / RFU ECM1 (11717891_a_at) / Fold change /veh ECM1 (11717891_a_at) / RFU IL23R (11748794_a_at) / Fold change /veh IL23R (11748794_a_at) / RFU TNFAIP8L3 (11732012_x_at) / Fold change /veh TNFAIP8L3 (11732012_x_at) / RFU MBOAT4 (11741988_at) / Fold change /veh MBOAT4 (11741988_at) / RFU 11764193_at / Fold change /veh 11764193_at / RFU TMEM53 (11763286_at) / Fold change /veh TMEM53 (11763286_at) / RFU MAGEB2 (11727129_at) / Fold change /veh MAGEB2 (11727129_at) / RFU TMEM200A (11744735_a_at) / Fold change /veh TMEM200A (11744735_a_at) / RFU CCDC152 (11751479_a_at) / Fold change /veh CCDC152 (11751479_a_at) / RFU FAM211A (11726209_a_at) / Fold change /veh FAM211A (11726209_a_at) / RFU RGS16 (11746705_a_at) / Fold change /veh RGS16 (11746705_a_at) / RFU VCAN (11755009_s_at) / Fold change /veh VCAN (11755009_s_at) / RFU RHOB (11743442_s_at) / Fold change /veh RHOB (11743442_s_at) / RFU RGS16 (11720943_a_at) / Fold change /veh RGS16 (11720943_a_at) / RFU RGS16 (11720944_at) / Fold change /veh RGS16 (11720944_at) / RFU, VPS4B / Fold change vs veh, VPS4B / RFU, CREB1 / Fold change vs veh, CREB1 / RFU, DNAJC13 / Fold change vs veh, DNAJC13 / RFU, GNAQ / Fold change vs veh, GNAQ / RFU, CDK5R1 / Fold change vs veh, CDK5R1 / RFU, ZRANB3 / Fold change vs veh, ZRANB3 / RFU, CUL4A / Fold change vs veh, CUL4A / RFU, CCNY / Fold change vs veh, CCNY / RFU, UFL1 / Fold change vs veh, UFL1 / RFU, COG3 / Fold change vs veh, COG3 / RFU, DIAPH2 / Fold change vs veh, DIAPH2 / RFU, SKA2 / Fold change vs veh, SKA2 / RFU, AFF3 / Fold change vs veh, AFF3 / RFU, LMF1 / Fold change vs veh, LMF1 / RFU, IPO11 / Fold change vs veh, IPO11 / RFU, DFFB / Fold change vs veh, DFFB / RFU, FOXP1 / Fold change vs veh, FOXP1 / RFU, CARD8 / Fold change vs veh, CARD8 / RFU, STRN3 / Fold change vs veh, STRN3 / RFU, ADK / Fold change vs veh, ADK / RFU, RASSF2 / Fold change vs veh, RASSF2 / RFU, WIPF1 / Fold change vs veh, WIPF1 / RFU, LARP1B / Fold change vs veh, LARP1B / RFU, RASA1 / Fold change vs veh, RASA1 / RFU, RB1 / Fold change vs veh, RB1 / RFU, PPFIA1 / Fold change vs veh, PPFIA1 / RFU, MAT2A / Fold change vs veh, MAT2A / RFU, CCT5 / Fold change vs veh, CCT5 / RFU, WDR92 / Fold change vs veh, WDR92 / RFU, CUX1 / Fold change vs veh, CUX1 / RFU, TTC7A / Fold change vs veh, TTC7A / RFU, TMEM135 / Fold change vs veh, TMEM135 / RFU, DEPTOR / Fold change vs veh, DEPTOR / RFU, CPM / Fold change vs veh, CPM / RFU, DNAJB6 / Fold change vs veh, DNAJB6 / RFU, CACNA2D3 / Fold change vs veh, CACNA2D3 / RFU, DTX4 / Fold change vs veh, DTX4 / RFU, TFCP2 / Fold change vs veh, TFCP2 / RFU, GMCL1 /// GMCL1P1 / Fold change vs veh, GMCL1 /// GMCL1P1 / RFU, AEBP2 / Fold change vs veh, AEBP2 / RFU, SNHG1 /// SNORD22 /// SNORD25 /// SNORD26 /// SNORD27 /// SNORD28 /// SNORD29 /// SNORD31 / Fold change vs veh, SNHG1 /// SNORD22 /// SNORD25 /// SNORD26 /// SNORD27 /// SNORD28 /// SNORD29 /// SNORD31 / Fold change (Aza/veh), C12orf56 (ProbeSet 11735607_a_at) / Fold change (ACY-1035/veh), C12orf56 (ProbeSet 11735607_a_at) / Fold change (Aza/veh), FGFR1OP (ProbeSet 11751329_s_at) / Fold change (ACY-1035/veh), FGFR1OP (ProbeSet 11751329_s_at) / Fold change (Aza/veh), VPS36 (ProbeSet 11739960_a_at) / Fold change (ACY-1035/veh), VPS36 (ProbeSet 11739960_a_at) / RFU SYPL1 (11715823_x_at) / Fold change /veh SYPL1 (11715823_x_at) / RFU IGFBP7 (11715501_s_at) / Fold change /veh IGFBP7 (11715501_s_at) / RFU REEP3 (11722064_at) / Fold change /veh REEP3 (11722064_at) / RFU IGLL1 (11728026_x_at) / Fold change /veh IGLL1 (11728026_x_at): dose or concentration left out as unconfirmed
Conditions: ProbeSet 11727641_at; LIST B

In the case of `Nc1ncn([C@@H]2O[C@H](CO)[C@@H](O)[C@H]2O)c(=O)n1` [azacitidine], the “RFU, NOM1” value is reported as 178.62 RFU.
